How the values were obtained:
[1] = tested on: cleaved PARP in MV-4-11 xenograft tumors; assay: PARP cleavage in tumor lysates (western blotting); type: in vivo, mouse; settings: single IP dose 50 mg/kg or 100 mg/kg; 2, 6, 24 hrs
Procedure: (§1) PARP cleavage was measured in HCT 116 (colon carcinoma) and MV-4-11 tumor lysates by western blotting. […] HCT 116 tumors were collected 3, 6 and 12 hrs post dosing; MV-4-11 tumors were collected at 2, 6 and 24 hrs post dosing. […] Tumors were lysed in cell extraction buffer (Biosource # FNN0011) containing protease inhibitors (Sigma # P2714), and PMSF Phenylmethanesulfonyl fluoride (PMSF) [#P7626, Sigma]. Forty micrograms of protein for each sample was loaded and run on 4-12% Tris-Glycine NuPAGE gel (Invitrogen), in Novex Tris-Glycine running buffer (Invitrogen). After gel separation, proteins were electro-transferred to a PVDF membrane (Invitrogen).

[2] = tested on: cleaved PARP in HCT 116 xenograft tumors; assay: PARP cleavage in tumor lysates (western blotting); type: in vivo, mouse; settings: single IP dose 170 mg/kg
Procedure: as §1

[3] = tested on: HCT 116 colon cancer xenograft; assay: In vivo efficacy, mouse xenograft
Procedure: HCT 116 colon cancer cells [200 μL of a 2.5×10^7 cells/mL suspension (1:1 DPBS with cells:Matrigel)] were subcutaneously implanted in the right hind flank of female nu/nu athymic mice. After 7 days, when tumors reached an average volume of approximately 200 mm^3, animals were weighed, randomized by tumor volume (l×w×h×0.52), and assigned to the various study groups before initial dosing.
[…]. The animals on the twice-weekly schedule received compound on Days 1, 4, 8, 11, 15 and 18. […].
(§2) Percent TGI is then calculated with the following equation: […]
where TVt is the average tumor volume on Day 10 and TV, is the initial average tumor volume. ANOVA was performed to calculate statistical significance, defined as p<0.05.
Time To Endpoint (TTE) was calculated for each individual animal to reach the predetermined study end point where the tumor volume becomes 1200 mm^3 or 10% of body weight or a greater than 20% body weight loss for two sequential measurements. The TTE is calculated and the median value is recorded for the group. Tumor Growth Delay (TGD) is then calculated with the following equation:
TGD=median TTEtreatment−median TTEcontrol

MiaPaca2 = assay: Cell cycle analysis (cells with ≧4N DNA content); type: cell-based; settings: Homo sapiens, MIA PaCa-2, MiaPaca2, 16 hours
From the text: Cells were fixed, stained, and analyzed.

[4] = tested on: histone H3 phosphorylation in epidermis; assay: pHH3 immunohistochemistry in mouse skin punches; type: in vivo
Procedure: For each study, animals were randomized by tumor volume and distributed into groups of ten animals each. […] Inhibition of histone H3 (HH3) phosphorylation was evaluated in HCT 116 xenograft tumors, mouse femur bone marrow, and mouse skin punch biopsy sections by immunohistochemistry (IHC). […] The tumors were collected 6 hrs post-dose on day 4, 11, 18 and on day 25 (one week after completion of dosing phase of the experiment). Phosphorylated histone H3 (pHH3) was detected by immunohistochemistry staining of tissue sections with the antibody # 9701 (Cell Signaling Technology, Inc.), which recognizes phosphorylation of Ser10 residue in histone H3 protein. […] Three mice in each group were sacrificed on day 4 and day 18, 6 hours post-dose. Skin punches (8 mm) were fixed in formalin, trimmed, and sections stained to identify cells positive for histone H3 phosphorylation.

Flt4 = target: T1, Flt4 (Homo sapiens, UniProt P35916); assay: Radiometric kinase assay (Upstate panel); type: biochemical
T1 construct: purchased Upstate Biotechnology, Dundee, UK

[5] = tested on: Calu 6 lung carcinoma xenograft; assay: In vivo efficacy, mouse xenograft; settings: CALU6 (NSCLC)
Procedure: as §2
Time To Endpoint (TTE) was calculated for each individual animal to reach the predetermined study end point where the tumor volume becomes 1200 mm^3 or 10% of body weight or a greater than 20% body weight loss for two sequential measurements. The TTE is calculated and the median value is recorded for the group. Tumor Growth Delay (TGD) is then calculated with the following equation: […]
Calu 6 lung carcinoma cells [200 μL of a 5×10^7 cells/ml suspension (1:1 DPBS with cells:Matrigel)] were implanted subcutaneously in the right hind flank of mice. After 11 days, when tumors reached an average volume of approximately 150 mm^3, animals were weighed, randomized by tumor volume (l×w×h×0.52), and assigned to the various study groups before initial dosing.

[6] = tested on: HCT 116 colon cancer xenograft; assay: In vivo efficacy, mouse xenograft; remark: listed apart in the source
[7] = HCT 116 (Colon), 75 mg/kg biw × 3
[8] = HCT 116 (Colon), 100 mg/kg biw × 3
[9] = HCT 116 (Colon), 150 mg/kg biw × 3

T1 sequence (P35916 25-1363): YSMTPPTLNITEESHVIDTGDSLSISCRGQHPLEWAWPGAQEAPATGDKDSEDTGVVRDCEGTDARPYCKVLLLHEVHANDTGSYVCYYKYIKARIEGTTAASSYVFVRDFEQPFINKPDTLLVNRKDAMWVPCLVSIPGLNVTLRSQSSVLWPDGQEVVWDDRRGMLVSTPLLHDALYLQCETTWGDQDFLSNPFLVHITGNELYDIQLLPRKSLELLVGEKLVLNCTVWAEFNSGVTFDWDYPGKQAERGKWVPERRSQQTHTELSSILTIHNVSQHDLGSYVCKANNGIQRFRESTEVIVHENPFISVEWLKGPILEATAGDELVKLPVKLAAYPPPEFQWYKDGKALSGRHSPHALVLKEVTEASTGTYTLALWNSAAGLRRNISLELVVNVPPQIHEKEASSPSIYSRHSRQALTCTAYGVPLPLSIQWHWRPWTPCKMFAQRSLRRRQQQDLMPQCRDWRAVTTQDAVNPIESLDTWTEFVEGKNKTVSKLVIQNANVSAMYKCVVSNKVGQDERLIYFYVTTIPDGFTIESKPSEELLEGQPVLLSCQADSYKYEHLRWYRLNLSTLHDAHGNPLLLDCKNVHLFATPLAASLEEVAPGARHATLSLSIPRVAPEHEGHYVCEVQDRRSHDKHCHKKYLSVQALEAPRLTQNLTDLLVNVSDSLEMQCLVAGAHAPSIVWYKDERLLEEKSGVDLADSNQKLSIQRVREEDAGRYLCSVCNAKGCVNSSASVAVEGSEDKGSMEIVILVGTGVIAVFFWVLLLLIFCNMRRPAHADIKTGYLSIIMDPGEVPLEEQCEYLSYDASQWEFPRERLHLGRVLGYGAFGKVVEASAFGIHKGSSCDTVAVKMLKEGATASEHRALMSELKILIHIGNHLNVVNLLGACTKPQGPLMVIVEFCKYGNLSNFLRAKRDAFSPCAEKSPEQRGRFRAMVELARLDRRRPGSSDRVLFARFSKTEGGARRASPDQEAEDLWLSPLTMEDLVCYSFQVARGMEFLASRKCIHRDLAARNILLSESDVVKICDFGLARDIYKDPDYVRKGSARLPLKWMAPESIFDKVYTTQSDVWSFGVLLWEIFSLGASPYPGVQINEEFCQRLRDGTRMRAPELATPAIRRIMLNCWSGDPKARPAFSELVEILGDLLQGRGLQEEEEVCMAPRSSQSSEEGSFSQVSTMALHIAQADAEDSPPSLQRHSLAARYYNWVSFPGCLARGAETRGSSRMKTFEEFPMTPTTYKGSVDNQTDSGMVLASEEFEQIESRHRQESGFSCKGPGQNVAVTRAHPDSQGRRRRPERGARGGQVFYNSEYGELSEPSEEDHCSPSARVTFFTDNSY

What does the source list for `CS(=O)(=O)O.O=C(Nc1cccc(Cl)c1)Nc1ncc(CCNc2ncnc3ccsc23)s1` [Compound 1, 1-(3-chlorophenyl)-3-{5-[2-(thieno[3,2-d]pyrimidin-4-ylamino)ethyl]thiazo}-urea]?
PARP cleavage [1]: dose- and time-dependent; time after dose PARP cleavage is maintained [2]: at least 12 hr; time after dose at which PARP cleavage became evident [2]: 3 h; TGD ([3]; 100 mg/kg, qd × 5, 9 d off × 2): 45 days; TGD ([3]; 125 mg/kg, Qw × 3): 22.5 days; TGD ([3]; 150 mg/kg, biw × 3): 32.5 days; % TGI [3, 7]: 67.5%; TGD [3, 7]: 22 days; % TGI [3, 8]: 79.4%; TGD [3, 8]: 25.1 days; % TGI [3, 9]: 95.6%; TGD [3, 9]: 32.5 days; EC50 (MiaPaca2): 9 nM; reduction of number of phospho-histone H3 positively stained cells in epidermis versus vehicle ([4]; 150 mg/kg biweekly for 3 weeks, day 4 and day 18, 6 hours post-dose): ~50%; number of positively stained cells in epidermis versus vehicle ([4]; day 25): still decreased; IC50 (Flt4): 0.014 µM; % TGI ([5]; 42.5 mg/kg biw × 3): 23.5%; % TGI ([5]; 85 mg/kg biw × 3): 28.7%; % TGI ([5]; 170 mg/kg biw × 3): 91.4%; % TGI (Day 36) ([6]; 100 mg/kg, qd × 5, 9 d off × 2): 91.6%; % TGI (Day 36) ([6]; 125 mg/kg, Qw × 3): 79.8%; % TGI (Day 36) ([6]; 150 mg/kg, biw × 3): 95.6%

— patent publication US20110293745A1, “AURORA KINASE INHIBITORS” (SUNESIS PHARMACEUTICALS, INC., priority 2008, published 2011)
